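Step 1: Grow cells in 96-well plates. Step 2: Expose to compound for 48 hours at 5 concentrations. Step 3: Interpolate endpoints linearly; if unreached, use highest concentration. GI50: concentration for 50% inhibition of growth.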 The source made the active and inactive calls. No stated cut-off is given here; in the data, active = GI50 up to about 1.1 µM and inactive = higher.
Assays:
Assay in all cases: NCI tumour cell line growth inhibition, 48 h
HL-60 = tested on: HL-60
HOP-62 = tested on: HOP-62
Malme-3M = tested on: Malme-3M
ACHN = tested on: ACHN
M14 = tested on: M14
MDA-N = tested on: MDA-N
TK-10 = tested on: TK-10
SF-295 = tested on: SF-295
OVCAR-8 = tested on: OVCAR-8
Hs-578T = tested on: Hs-578T
NCI-H23 = tested on: NCI-H23
MCF7 = tested on: MCF7
NCI/ADR-RES = tested on: NCI/ADR-RES
SN12C = tested on: SN12C
SNB-19 = tested on: SNB-19
HCT-116 = tested on: HCT-116
UACC-257 = tested on: UACC-257
HCT-15 = tested on: HCT-15
K562 = tested on: K562
MOLT-4 = tested on: MOLT-4
NCI-H522 = tested on: NCI-H522
MDA-MB-231 = tested on: MDA-MB-231
SK-MEL-5 = tested on: SK-MEL-5
NCI-H460 = tested on: NCI-H460
U-251 = tested on: U-251
SF-539 = tested on: SF-539
PC-3 = tested on: PC-3
DU-145 = tested on: DU-145
SK-OV-3 = tested on: SK-OV-3
EKVX = tested on: EKVX
COLO 205 = tested on: COLO 205
HT-29 = tested on: HT-29
SNB-75 = tested on: SNB-75
OVCAR-4 = tested on: OVCAR-4
KM12 = tested on: KM12
HOP-92 = tested on: HOP-92
OVCAR-5 = tested on: OVCAR-5
SW-620 = tested on: SW-620
CCRF-CEM = tested on: CCRF-CEM
BT-549 = tested on: BT-549
UACC-62 = tested on: UACC-62
T47D = tested on: T47D
OVCAR-3 = tested on: OVCAR-3
MDA-MB-435 = tested on: MDA-MB-435
SF-268 = tested on: SF-268
RXF 393 = tested on: RXF 393
RPMI-8226 = tested on: RPMI-8226
HCC 2998 = tested on: HCC 2998
SK-MEL-28 = tested on: SK-MEL-28
NCI-H226 = tested on: NCI-H226
IGROV-1 = tested on: IGROV-1
786-0 = tested on: 786-0
A549 = tested on: A549
SK-MEL-2 = tested on: SK-MEL-2
LOX IMVI = tested on: LOX IMVI
UO-31 = tested on: UO-31
CAKI-1 = tested on: CAKI-1
A498 = tested on: A498
SR = tested on: SR

Measured: GI50

CC(=O)CC1CCC(=O)CCC(=O)OC(CC(C)=O)CCC(=O)CCC(=O)O1 (stereo not given)
> 100 µM: HCT-15
inactive: HL-60 > 100 µM | HOP-62 > 100 µM | Malme-3M > 100 µM | ACHN > 100 µM | M14 > 100 µM | MDA-N > 100 µM | TK-10 > 100 µM | SF-295 > 100 µM | OVCAR-8 > 100 µM | Hs-578T > 100 µM | NCI-H23 > 100 µM | MCF7 > 100 µM | NCI/ADR-RES > 100 µM | SN12C > 100 µM | SNB-19 > 100 µM | HCT-116 > 100 µM | UACC-257 > 100 µM | K562 > 100 µM | MOLT-4 > 100 µM | NCI-H522 > 100 µM | MDA-MB-231 > 100 µM | SK-MEL-5 > 100 µM | NCI-H460 > 100 µM | U-251 > 100 µM | SF-539 > 100 µM | PC-3 > 100 µM | DU-145 > 100 µM | SK-OV-3 > 100 µM | EKVX > 100 µM | COLO 205 > 100 µM | HT-29 > 100 µM | SNB-75 > 100 µM | OVCAR-4 > 100 µM | KM12 > 100 µM | HOP-92 > 100 µM | OVCAR-5 > 100 µM | SW-620 > 100 µM | CCRF-CEM > 100 µM | BT-549 > 100 µM | UACC-62 > 100 µM | T47D > 100 µM | OVCAR-3 > 100 µM | MDA-MB-435 > 100 µM | SF-268 > 100 µM | RXF 393 > 100 µM | RPMI-8226 > 100 µM | HCC 2998 > 100 µM | SK-MEL-28 > 100 µM | NCI-H226 > 100 µM | IGROV-1 > 100 µM | 786-0 > 100 µM | A549 > 100 µM

CSc1nc2c(c(N(C)C)n1)C(O)n1c(nc3ccccc31)S2 (stereo not given)
> 100 µM: HCT-15
inactive: SK-MEL-2 > 100 µM | HOP-62 23 µM | Malme-3M 28.6 µM | ACHN > 83.9 µM | M14 > 65.3 µM | MDA-N > 55.1 µM | TK-10 > 53.2 µM | SF-295 38.1 µM | OVCAR-8 14.6 µM | Hs-578T 14.1 µM | NCI-H23 31.3 µM | MCF7 47 µM | NCI/ADR-RES 37.8 µM | SN12C > 100 µM | SNB-19 25.4 µM | HCT-116 23 µM | UACC-257 > 100 µM | LOX IMVI 9.38 µM | K562 > 100 µM | MOLT-4 > 100 µM | NCI-H522 12 µM | MDA-MB-231 28 µM | SK-MEL-5 56.2 µM | UO-31 > 50.2 µM | NCI-H460 73.5 µM | CAKI-1 > 58.5 µM | U-251 > 22.7 µM | SF-539 15.2 µM | PC-3 > 100 µM | DU-145 69.7 µM | SK-OV-3 16.5 µM | EKVX > 100 µM | COLO 205 > 100 µM | HT-29 > 100 µM | SNB-75 17.1 µM | A498 > 100 µM | OVCAR-4 4.95 µM | KM12 > 100 µM | HOP-92 43.3 µM | OVCAR-5 > 100 µM | SW-620 > 100 µM | CCRF-CEM > 100 µM | BT-549 67 µM | UACC-62 > 85.9 µM | T47D 38.1 µM | OVCAR-3 29.2 µM | MDA-MB-435 > 100 µM | SF-268 32.7 µM | RXF 393 21.3 µM | RPMI-8226 > 100 µM | HCC 2998 > 100 µM | SK-MEL-28 46.2 µM | NCI-H226 > 100 µM | IGROV-1 30.2 µM | 786-0 26.8 µM | A549 > 71.9 µM

NS(=O)(=O)c1nnc(NC(=O)CCC(=O)O)s1
> 100 µM: HCT-15
inactive: HL-60 > 100 µM | SK-MEL-2 > 100 µM | HOP-62 > 100 µM | Malme-3M > 100 µM | ACHN > 100 µM | M14 > 100 µM | MDA-N > 100 µM | TK-10 > 100 µM | SF-295 > 100 µM | OVCAR-8 > 100 µM | Hs-578T > 100 µM | NCI-H23 > 100 µM | MCF7 > 100 µM | NCI/ADR-RES > 100 µM | SN12C > 100 µM | SNB-19 > 100 µM | HCT-116 > 100 µM | UACC-257 > 100 µM | LOX IMVI > 100 µM | K562 > 100 µM | MOLT-4 > 100 µM | NCI-H522 > 100 µM | MDA-MB-231 > 100 µM | SK-MEL-5 > 100 µM | UO-31 > 100 µM | NCI-H460 > 100 µM | CAKI-1 > 100 µM | U-251 > 100 µM | SF-539 > 100 µM | DU-145 > 100 µM | SK-OV-3 > 100 µM | EKVX > 100 µM | COLO 205 > 100 µM | HT-29 > 100 µM | A498 > 100 µM | OVCAR-4 > 100 µM | KM12 > 100 µM | HOP-92 > 100 µM | OVCAR-5 > 100 µM | SW-620 > 100 µM | BT-549 > 100 µM | UACC-62 > 100 µM | T47D > 100 µM | OVCAR-3 > 100 µM | MDA-MB-435 > 100 µM | SF-268 > 100 µM | RXF 393 > 100 µM | RPMI-8226 > 100 µM | HCC 2998 > 100 µM | SK-MEL-28 > 100 µM | NCI-H226 > 100 µM | 786-0 > 100 µM | A549 > 100 µM | SR > 100 µM

— ChEMBL document CHEMBL1201862, “PubChem BioAssay data set” (2004)
